In patent publication US8168667B2 (Galapagos NV, priority 2006, dated 2012):

target: T1, human androgen receptor (hAR) (Homo sapiens, UniProt P10275); experiment: Functional response test: hAR transactivation (luciferase reporter) in HALP2 cells; format: cell-based; conditions: not given
T1 sequence (P10275 1-920): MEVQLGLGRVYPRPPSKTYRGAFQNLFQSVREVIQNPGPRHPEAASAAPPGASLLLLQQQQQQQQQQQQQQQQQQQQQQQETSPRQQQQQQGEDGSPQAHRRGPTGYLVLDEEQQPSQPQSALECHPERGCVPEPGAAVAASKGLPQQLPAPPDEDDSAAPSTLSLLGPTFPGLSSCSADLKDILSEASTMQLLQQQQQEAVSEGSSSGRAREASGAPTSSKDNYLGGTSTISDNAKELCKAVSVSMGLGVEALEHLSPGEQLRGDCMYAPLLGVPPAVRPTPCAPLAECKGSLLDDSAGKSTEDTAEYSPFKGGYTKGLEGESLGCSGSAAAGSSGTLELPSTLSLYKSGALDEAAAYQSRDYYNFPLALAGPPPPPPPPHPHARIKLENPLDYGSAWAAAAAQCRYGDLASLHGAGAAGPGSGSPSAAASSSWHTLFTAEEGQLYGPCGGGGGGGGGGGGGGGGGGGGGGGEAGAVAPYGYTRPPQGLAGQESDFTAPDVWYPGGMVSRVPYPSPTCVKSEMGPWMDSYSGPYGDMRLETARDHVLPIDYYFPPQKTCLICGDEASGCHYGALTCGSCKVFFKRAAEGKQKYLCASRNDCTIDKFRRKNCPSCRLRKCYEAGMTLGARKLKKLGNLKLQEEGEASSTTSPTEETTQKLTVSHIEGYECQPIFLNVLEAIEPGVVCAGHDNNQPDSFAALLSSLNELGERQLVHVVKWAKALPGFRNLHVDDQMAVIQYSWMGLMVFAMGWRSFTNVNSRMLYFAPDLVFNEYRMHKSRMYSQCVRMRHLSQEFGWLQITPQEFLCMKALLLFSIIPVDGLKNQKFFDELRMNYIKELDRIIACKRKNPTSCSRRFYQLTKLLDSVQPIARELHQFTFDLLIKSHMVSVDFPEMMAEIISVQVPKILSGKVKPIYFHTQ
Summary of the method: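 HALP2 cells are HeLa cells stably transfected with CMV-driven hAR and a probasin ARE-luciferase reporter. They were seeded 24 h ahead, then exposed to compounds for 20 hours at 37° C in phenol red-free DMEM with 5% desteroided serum. Luciferase luminescence was measured after lysis; for antagonist mode, compounds were tested against increasing DHT concentrations.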

SMILES	KSchild (nM) potency
CN1C(=O)N(c2ccc(C#N)c(C(F)(F)F)c2)C(=O)C1(C)c1ccc(O)c(F)c1 (stereo not shown) [Example 172, 4-[4-(3-fluoro-4-hydroxyphenyl)-3,4-dimethyl-2,5-dioxoimidazolidin-1-yl]-2-trifluoromethylbenzonitrile]	8 nM
CCC1(c2cc(F)c(O)c(F)c2)C(=O)N(c2ccc(C#N)c(C(F)(F)F)c2)C(=O)N1C (stereo not shown) [Example 174, 4-[4-(3,5-difluoro-4-hydroxyphenyl)-2,5-dioxo-4-ethyl-3-methylimidazolidin-1-yl]-2-trifluoromethylbenzonitrile]	6.93 nM
CN1C(=O)N(c2ccc(C#N)c(C(F)(F)F)c2)C(=O)[C@]1(CF)c1ccc(O)cc1 [Example 177.1, (S)-4-[4-fluoromethyl-4-(4-hydroxyphenyl)-3-methyl-2,5-dioxoimidazolidin-1-yl]-2-trifluoromethylbenzonitrile]	310 nM
CN1C(=O)N(c2ccc(C#N)c(C(F)(F)F)c2)C(=O)[C@@]1(CF)c1ccc(O)cc1 [Example 177.2, (R)-4-[4-fluoromethyl-4-(4-hydroxyphenyl)-3-methyl-2,5-dioxoimidazolidin-1-yl]-2-trifluoromethylbenzonitrile]	40.4 nM
CN1C(=O)N(c2ccc(C#N)c(C(F)(F)F)c2)C(=O)C1(C)c1ccc(O)cc1F (stereo not shown) [Example 178, 4-[3,4-dimethyl-2,5-dioxo-4-(2-fluoro-4-hydroxyphenyl)imidazolidin-1-yl]-2-trifluoromethylbenzonitrile]	10 nM
CN1C(=O)N(c2ccc(C#N)c(C(F)(F)F)c2)C(=O)C1(c1ccc(O)cc1)C(F)(F)F (stereo not shown) [Example 179, 4-[2,5-dioxo-4-(4-hydroxyphenyl)-3-methyl-4-trifluoromethylimidazolidin-1-yl]-2-trifluoromethylbenzonitrile]	15 nM
Cc1cc(O)ccc1C1(C)C(=O)N(c2ccc(C#N)c(C(F)(F)F)c2)C(=O)N1C (stereo not shown) [Example 180, 4-[3,4-dimethyl-2,5-dioxo-4-(4-hydroxy-2-methylphenyl)imidazolidin-1-yl]-2-trifluoromethylbenzonitrile]	8 nM
CN1C(=O)N(c2ccc(C#N)c(C(F)(F)F)c2)C(=O)C12CCc1cc(O)ccc12 (stereo not shown) [Example 181, 4-[2′,3′-dihydro-2,5-dioxo-5′-hydroxy-3-methylspiro(imidazolidin-4,1′(1H)inden)-1-yl]-2-trifluoromethylbenzonitrile]	6 nM
CCCC1(c2ccc(O)cc2)C(=O)N(c2ccc(C#N)c(C(F)(F)F)c2)C(=O)N1C (stereo not shown) [Example 182.1, 4-[2,5-dioxo-4-(4-hydroxyphenyl)-3-methyl-4-propylimidazolidin-1-yl]-2-trifluoromethylbenzonitrile]	15 nM
CSCN1C(=O)N(c2ccc(C#N)c(C(F)(F)F)c2)C(=O)C1(C)c1ccc(O)cc1 (stereo not shown) [Example 222.2]	15 nM
COC(=O)CN1C(=O)N(c2ccc(C#N)c(C(F)(F)F)c2)C(=O)C1(C)c1ccc(O)cc1 (stereo not shown) [Example 227, 4-[2,5-dioxo-4-(4-hydroxyphenyl)-3-[(methoxycarbonyl)methyl]-4-methylimidazolidin-1-yl]-2-trifluoromethylbenzonitrile]	3.46 nM
CC1(c2ccc(O)cc2)C(=O)N(c2ccc(C#N)c(C(F)(F)F)c2)C(=O)N1CO (stereo not shown) [Example 228.1, 4-[2,5-dioxo-3-hydroxymethyl-4-(4-hydroxyphenyl)-4-methylimidazolidin-1-yl]-2-trifluoromethylbenzonitrile]	150 nM
CC1(c2ccc(O)cc2)C(=O)N(c2ccc(C#N)c(C(F)(F)F)c2)C(=O)N1CC(N)=O (stereo not shown) [Example 231, 4-[3-[(aminocarbonyl)methyl]-2,5-dioxo-4-(4-hydroxyphenyl)-4-methylimidazolidin-1-yl]-2-trifluoromethylbenzonitrile]	60 nM
CCC(=O)CN1C(=O)N(c2ccc(C#N)c(C(F)(F)F)c2)C(=O)C1(C)c1ccc(O)cc1 (stereo not shown) [Example 233, 4-[2,5-dioxo-4-(4-hydroxyphenyl)-4-methyl-3-(2-oxobutyl)imidazolidin-1-yl]-2-trifluoromethylbenzonitrile]	2.45 nM
COC(=O)CCN1C(=O)N(c2ccc(C#N)c(C(F)(F)F)c2)C(=O)C1(C)c1ccc(O)cc1 (stereo not shown) [Example 234, 4-[2,5-dioxo-4-(4-hydroxyphenyl)-3-[2-(methoxycarbonyl)ethyl]-4-methylimidazolidin-1-yl]-2-trifluoromethylbenzonitrile]	15 nM
CC(=O)CN1C(=O)N(c2ccc(C#N)c(C(F)(F)F)c2)C(=O)C1(C)c1ccc(O)cc1 (stereo not shown) [Example 235, 4-[2,5-dioxo-4-(4-hydroxyphenyl)-4-methyl-3-(2-oxopropyl)imidazolidin-1-yl]-2-trifluoromethylbenzonitrile]	8 nM
CCOC(=O)CCN1C(=O)N(c2ccc(C#N)c(C(F)(F)F)c2)C(=O)C1(C)c1ccc(O)cc1 (stereo not shown) [Example 236, 4-[2,5-dioxo-3-[2-(ethoxycarbonyl)ethyl]-4-(4-hydroxyphenyl)-4-methylimidazolidin-1-yl]-2-trifluoromethylbenzonitrile]	15 nM
CC1(c2ccc(O)cc2)C(=O)N(c2ccc(C#N)c(C(F)(F)F)c2)C(=O)N1CC#N (stereo not shown) [Example 237, 4-[3-(cyanomethyl)-2,5-dioxo-4-(4-hydroxyphenyl)-4-methylimidazolidin-1-yl]-2-trifluoromethylbenzonitrile]	8 nM
COCCOCN1C(=O)N(c2ccc(C#N)c(C(F)(F)F)c2)C(=O)C1(C)c1ccc(O)cc1 (stereo not shown) [Example 238, 4-[2,5-dioxo-4-(4-hydroxyphenyl)-3-[(2-methoxyethoxy)methyl]-4-methylimidazolidin-1-yl]-2-trifluoromethylbenzonitrile]	15 nM
CC1(c2ccc(O)cc2)C(=O)N(c2ccc(C#N)c(C(F)(F)F)c2)C(=O)N1CCO (stereo not shown) [Example 239, 4-[2,5-dioxo-3-(2-hydroxyethyl)-4-(4-hydroxyphenyl)-4-methylimidazolidin-1-yl]-2-trifluoromethylbenzonitrile]	10 nM
CC1(c2ccc(O)cc2)C(=O)N(c2ccc(C#N)c(C(F)(F)F)c2)C(=O)N1CC#CCO (stereo not shown) [Example 243, 4-[2,5-dioxo-3-(4-hydroxy-2-butynyl)-4-(4-hydroxyphenyl)-4-methylimidazolidinyl-1-yl]-2-trifluoromethylbenzonitrile]	4.56 nM

same assay, conditions: agonism; HALP2 cells (HeLa, hAR + ARE-luciferase), 20 hours at 37° C.

EC50	SMILES
10 nM	COc1ccc(C2(CF)C(=O)N(c3ccc(Cl)c(Cl)c3)C(=O)N2C)cc1 (stereo not shown) [Example 169, 1-(3,4-dichlorophenyl)-4-fluoromethyl-4-(4-methoxyphenyl)-3-methylimidazolidine-2,5-dione]
600 nM	C=CCOCC1(c2ccc(OC)cc2)C(=O)N(c2ccc(Cl)c(Cl)c2)C(=O)N1C (stereo not shown) [Example 171, 1-(3,4-dichlorophenyl)-4-(4-methoxyphenyl)-3-methyl-4-[(2-propenyloxy)methyl]-imidazolidine-2,5-dione]
12.3 nM	CC(=O)OCC#CCN1C(=O)N(c2ccc(Cl)c(Cl)c2)C(=O)C1(C)c1ccc(O)cc1 (stereo not shown) [Example 223, 4-[1-(3,4-dichlorophenyl)-2,5-dioxo-4-methyl-4-(4-hydroxyphenyl)imidazolidin-3-yl]-2-butynyl acetate]
12.3 nM	CC1(c2ccc(O)cc2)C(=O)N(c2ccc(Cl)c(Cl)c2)C(=O)N1CC#CCO (stereo not shown) [Example 242, 1-(3,4-dichlorophenyl)-3-(4-hydroxy-2-butynyl)-4-(4-hydroxyphenyl)-4-methylimidazolidine-2,5-dione]

same assay, conditions: antagonism; concentration which increases the EC50 of the DHT by a factor of 2, Schild regression; HALP2 cells

KSchild (nM) potency	SMILES
10 nM	COc1ccc(C2(CF)C(=O)N(c3ccc(Cl)c(Cl)c3)C(=O)N2C)cc1 (stereo not shown) [Example 169, 1-(3,4-dichlorophenyl)-4-fluoromethyl-4-(4-methoxyphenyl)-3-methylimidazolidine-2,5-dione]
0.37 nM	CN1C(=O)N(c2ccc(Cl)c(Cl)c2)C(=O)C1(CO)c1ccc(O)cc1 (stereo not shown) [Example 190, 1-(3,4-dichlorophenyl)-4-hydroxymethyl-4-(4-hydroxyphenyl)-3-methylimidazolidine-2,5-dione]
12.25 nM	CC(=O)OCC#CCN1C(=O)N(c2ccc(Cl)c(Cl)c2)C(=O)C1(C)c1ccc(O)cc1 (stereo not shown) [Example 223, 4-[1-(3,4-dichlorophenyl)-2,5-dioxo-4-methyl-4-(4-hydroxyphenyl)imidazolidin-3-yl]-2-butynyl acetate]
12.25 nM	CC1(c2ccc(O)cc2)C(=O)N(c2ccc(Cl)c(Cl)c2)C(=O)N1CC#CCO (stereo not shown) [Example 242, 1-(3,4-dichlorophenyl)-3-(4-hydroxy-2-butynyl)-4-(4-hydroxyphenyl)-4-methylimidazolidine-2,5-dione]

SMILES	KSchild (nM) potency
CCC1(c2ccc(O)cc2)C(=O)N(c2ccc(C#N)c(C(F)(F)F)c2)C(=O)N1C (stereo not shown) [Example 183, 4-[2,5-dioxo-4-ethyl-4-(4-hydroxyphenyl)-3-methylimidazolidin-1-yl]-2-trifluoromethylbenzonitrile]	2 nM
CC1(c2ccc(O)cc2)C(=O)N(c2ccc(C#N)c(C(F)(F)F)c2)C(=O)N1CS(C)(=O)=O (stereo not shown) [Example 222.3, 4-[2,5-dioxo-4-(4-hydroxyphenyl)-4-methyl-3-[(methylsulphonyl)methyl]imidazolidin-1-yl]-2-trifluoromethylbenzonitrile]	200 nM
